Tests used:
HAEC = experiment: Cellular uptake: Mito-Esc/esculetin quantified by ESI-MS in cytosolic and mitochondrial fractions of HAEC; assay type: in vitro ADME, human
Method: After the treatment, cells were washed thrice with PBS. Similarly Mito-Esculetin+ Ang-II treatment group, Ang-II alone treatment group and control Apo E^−/− mice aortic tissue was taken. The isolation of mitochondrial and cytosolic extracts was carried out using a commercially available Proteo Extract Cytosol/Mitochondria Fractionation Kit (Cat. no. QIA88-Merck, USA) according to manufacturer's instructions. Initially, mitochondrial and cytosolic fractions were separated using a commercially available kit as mentioned elsewhere. Mito-Esc was quantified in the mitochondrial and cytosolic fractions obtained from HAEC and aorta of ApoE^−/− mice of different treatment groups as mentioned in Animal Experiments section (Table-1). Electrospray ionization (ESI)-MS. ESI-MS (positive mode) measurements were performed using a quadrupole time-of-flight mass spectrometer (QSTAR XL, Applied Biosystems/MDS Sciex, Foster City, Calif., USA). The data acquisition was under the control of Analyst QS software (Applied Biosystems). For the CID (collision-induced dissociation) experiments, the precursor ions were selected using the quadrupole analyzer and the product ions were analyzed using the TOF analyzer.

[1] = tested on: Ang-II-induced atherosclerosis in ApoE−/− mice; experiment: Serum lipid profile of Ang-II treated ApoE−/− mice; assay type: in vivo
Method: (§2) Experiments were conducted in 2-month-old male apolipoprotein E knockout (ApoE^−/−) mice according to the guidelines formulated for care and use of animals in scientific research (ICMR, New Delhi, India) at a CPCSEA (Committee for the Purpose of Control and Supervision of Experiments on Animals) registered animal facility. […] Animals were randomly divided into 3 groups each n=7:1) control 2) Ang-II treatment and 3) Mito-Esculetin+Ang-II treatment. Ang-II and Mito-Esculetin treatment groups received Ang-II (sigma) at a dose of 1.44 mg/kg/day for 6 weeks through sub-cutaneous route where as control group received normal saline. Mito-Esculetin treatment group received the compound at a dose of 0.5 mg/kg/day in normal drinking water. All animals were fed on normal chow throughout the study. After 6 weeks, all groups of animals were sacrificed as per standard protocols for euthanasia.
(§3) We further analyzed the vascular remodelling employing histological stains in tissue sections of thoracic aortas. […] In tune with this, we have also measured Mac-3 levels by flow cytometry.

[2] = tested on: Ang-II-induced H2O2 production in HAEC; experiment: H2O2 levels by Amplex red assay; assay type: cell-based, human; conditions: Ang-II 500 nM + Mito-Esc 2.5 μM, 16 h
Method: Amplex red reagent was used to detect the released H2O2 from cells. […] Immediately, formation of resorufin fluorescence was measured in multi mode reader (PerkinElmer) with λex=540 and λem=585.
(§1) Ang-II is known to increase oxidative stress through increased production of H2O2 (Doughan A K, Harrison D G, Dikalov S I. Circ Res (2008) 102:488-96). […] Further, we assessed the effect of Mito-Esc on H2O2-induced mitochondrial membrane depolarization. HAEC were treated with H2O2 (500 μM) in the presence or absence of Mito-Esc for a period of 16 h and mitochondrial membrane potential was measured using a mitochondrial membrane sensor kit. Mito-Sensor is a cationic dye that fluoresces differently in apoptotic and nonapoptotic cells. […] In apoptotic cells, membrane potentials are altered and the Mito-Sensor dye cannot accumulate in mitochondria and, thus, remain as monomers leading to a green fluorescence.

[3] = tested on: mitochondrial membrane potential in HAEC; experiment: Mitochondrial transmembrane potential (JC-1 / Mito-Sensor dye); assay type: cell-based, human; conditions: H2O2 500 μM, 16 h
Method: Mitochondrial potential was assessed by using the fluorescent potentiometric JC-1 dye. In healthy cells, JC-1 forms J-aggregates that display a strong red fluorescence with excitation of 560 nm and emission wavelength at 595 nm. In apoptotic or unhealthy cells, JC-1 exists as monomers that display a strong green fluorescence with excitation and emission at 485 nm and 535 nm, respectively. At the end of the treatments, cells were washed with Dulbeccos phosphate buffer solution (DPBS) and incubated with JC-1 dye ([…]) for 20 min. Cells were again washed twice with DPBS and maintained in culture medium. Fluorescence was monitored by using Olympus fluorescence microscope with Rhodamine and Fluorescein isothiocyanate (FITC) filters.
as §1, with “kit.” for “kit. Mito-Sensor is a cationic dye that fluoresces differently in apoptotic and nonapoptotic cells.”

[4] = tested on: AMPK1-α phosphorylation (Thr-172); experiment: Western blot of AMPK phosphorylation in HAEC; assay type: cell-based, human
Method: Previously, it was shown that AMPK co-immunoprecipitates with cardiac endothelial NO synthase (eNOS) and phosphorylates Ser-1177 in the presence of Ca^2+-calmodulin (CaM) to activate eNOS both in vitro and during ischaemia in rat hearts (FEBS Lett. (1999) 443:285-289). To test whether Mito-Esc mediates increased phosphorylation of eNOS through AMPK activation, initially, HAEC were treated various concentrations of Mito-Esc (1-5 μM) for 8 h and AMPK1-α phosphorylation (Thr-172) levels were measured. […] Next, we investigated the phospho-AMPK1-α levels in HAEC treated with H2O2 in the presence or absence of either Mito-Esc or native esculetin.

HAEC aging / senescence = experiment: Senescence-associated β-galactosidase staining; assay type: cell-based, human
Method: Low and high passage number (which reflects young and aged) endothelial cells (HAEC) cells were treated with various concentrations of H2O2 (50-500 μM)) for 8 h. Cells were washed in PBS, fixed for […] (room temperature) in 2% formaldehyde/0.2% glutaraldehyde, washed, and incubated at 37° C. with fresh senescence associated β-Gal (SA-,β-Gal) stain solution: 1 mg of 5-bromo-4-chloro-3-indolyl β-D-galactoside (X-Gal) per ml (stock=20 mg of dimethylformamide per ml)/40 mM citric acid/sodium phosphate, pH 6.0; 5 mM potassium ferrocyanide/5 mM potassium ferricyanide/150 mM NaCl/2 mM MgCl2. Staining was visualized after 24 h using a phase contrast microscope.
To study if Mti-Esc influences vascular aging; we have studied its effect on human aortic endothelial cell (HAEC) aging. For this, we used HAEC of different passages (representing different age) from P6 (young age) to P16 (old age). Also we have grown HAEC with Mito-Esc (2.5 μM) for six generations (six passages) to understand its chronic effects in regulating endothelial cell aging phenomenon.

SIRT-3, PGC-1α, TFAM = conditions: HAEC, 8 h
Method: At the end of the treatments, HAECs were washed with ice-cold DPBS and resuspended in RIPA buffer (20 mM Tris-HCl, pH 7.4/2.5 mM EDTA/1% Triton X-100/1% sodium deoxycholate/1% SDS/100 mM NaCl/100 mM sodium fluoride) containing protease inhibitor cocktail and phosphatase inhibitor cocktail-2 and -3. The lysate was centrifuged for 15 min at 12000×g. […] Protein bands were detected by using HRP substrate (Millipore-luminata). All the antibodies used for this study were from CST.
Next we investigated the ability of Mito-Esc to modulate the mitochondrial biogenetic regulators namely, silent mating type information regulation 2 homolog (SIRT)-3, Peroxisome proliferator-activated receptor-gamma coactivator (PGC)-1α and mitochondrial transcription factor A (TFAM).

[5] = tested on: mitochondrial content in HAEC; experiment: Mitotracker staining of mitochondrial content; conditions: 2.5 μM, 8 h
Method: Mitochondrial content in cells was assessed by selectively loading the mitochondria with the red fluorescent dye Mitotracker (Invitrogen, Carlsbad, Calif.).

[6] = tested on: eNOS and AMPK phosphorylation; experiment: eNOS and AMPK phosphorylation in total aorta lysate of ApoE−/− mice; conditions: compared to Ang-II alone or control
Method: Experiments were conducted in 2-month-old male apolipoprotein E knockout (ApoE^−/−) mice according to the guidelines formulated for care and use of animals in scientific research (ICMR, New Delhi, India) at a CPCSEA (Committee for the Purpose of Control and Supervision of Experiments on Animals) registered animal facility. […] Animals were randomly divided into 3 groups each n=7:1) control 2) Ang-II treatment and 3) Mito-Esculetin+Ang-II treatment. Ang-II and Mito-Esculetin treatment groups received Ang-II (sigma) at a dose of 1.44 mg/kg/day for 6 weeks through sub-cutaneous route where as control group received normal saline. Mito-Esculetin treatment group received the compound at a dose of 0.5 mg/kg/day in normal drinking water. […]
At the end of the treatments, HAECs were washed with ice-cold DPBS and resuspended in RIPA buffer (20 mM Tris-HCl, pH 7.4/2.5 mM EDTA/1% Triton X-100/1% sodium deoxycholate/1% SDS/100 mM NaCl/100 mM sodium fluoride) containing protease inhibitor cocktail and phosphatase inhibitor cocktail-2 and -3. […] Protein bands were detected by using HRP substrate (Millipore-luminata). […]
To further corroborate Mito-Esc's ability to protect from Ang-II-induced endothelial dysfunction during the progression of atheromatous plaque formation, we measured phospho-AMPK, AMPK, phospho-eNOS and eNOS protein levels in total aorta lysate.

[7] = tested on: Ang-II-induced atherosclerosis in ApoE−/− mice; experiment: Ang-II-induced aortic aneurysm and atheromatous plaque formation in ApoE−/− mice
Method: as §2, §3

[8] = serum, ApoE−/− mice, 45 days, Ang-II alone or Ang-II + Mito-Esc
[9] = ApoE−/− mice, thoracic aorta sections

SMILES: O=c1cc(CCCCCCCC[P+](c2ccccc2)(c2ccccc2)c2ccccc2)c2cc(O)c(O)cc2o1.[Br-] [Mito-Esc]
- accumulation in the mitochondria compared to native esculetin (HAEC): selectively accumulated in the mitochondria
- Cytosolic fraction (HAEC; HAEC, 2.5 μM, 24 h): 4488 ± 104 nmol/mg protein
- Mitochondrial fraction (HAEC; HAEC, 2.5 μM, 24 h): 14523 ± 342 nmol/mg protein
- Ang-II mediated increase in LDL, VLDL, triglycerides and total cholesterol ([1]; ApoE−/− mice serum): significantly reduced
- serum HDL levels ([1]; ApoE−/− mice serum): significant rise
- HDL [1, 8]: 45.53 ± 0.4 mg/dL
- LDL [1, 8]: 218.40 ± 20.9 mg/dL
- Total Cholesterol [1, 8]: 414.85 ± 8.2 mg/dL
- Triglycerides [1, 8]: 150.74 ± 3.8 mg/dL
- VLDL [1, 8]: 30.15 ± 0.4 mg/dL
- Ang-II-induced H2O2 levels [2]: completely reversed H2O2 levels to control conditions
- H2O2-mediated mitochondrial membrane depolarization [3]: significantly rescued
- concentration of maximum effect on phospho-AMPK1-α (Thr-172) levels ([4]; 1-5 μM, 8 h): 2.5 µM
- phospho-AMPK1-α (Thr-172) levels ([4]; 1-5 μM, 8 h): dose-dependent increase
- Ang-II-mediated inhibition of phospho-AMPK1-α ([4]; Ang-II 500 nM, co-incubation): made cells resistant
- AMPK1-α phosphorylation in the presence of H2O2 ([4]; H2O2 500 μM, 2.5 μM, 8 h): greatly enhanced
- endothelial cell aging (senescence-associated β-gal staining) (HAEC aging / senescence; HAEC, 2.5 μM chronic treatment for six passages): greatly attenuated
- H2O2-induced premature senescence (HAEC aging / senescence; P6 (young age) HAEC, H2O2): significantly inhibited
- RNA and protein levels of PGC-1α, TFAM (SIRT-3, PGC-1α, TFAM; 2.5 μM): significantly increased
- SIRT-3 levels (SIRT-3, PGC-1α, TFAM; 1-5 μM): significantly increased
- Ang-II treatment induced inhibition of PGC-1A, TFAM and SIRT-3 levels (SIRT-3, PGC-1α, TFAM; Ang-II 500 nM, 2.5 μM): significantly reversed
- mitochondrial content, treatment alone compared to control [5]: increased mitochondrial content
- phosphorylation statuses of eNOS and AMPK in total aorta lysate [6]: significant increase
- thick fibrous mature connective tissue around atheroma (Masson trichrome staining) ([7]; ApoE−/− mice aorta): almost disappeared
- Ang-II-induced plaque extension, micro/pseudo aneurysm formation and maximal aortic diameters ([7]; ApoE−/− mice, thoracic and abdominal aorta, six weeks, 0.5 mg/kg/day in drinking water): significant reduction
- Ang-II induced severe atherosclerotic lesions (H&E staining of aorta) [7, 9]: complete protection
- luminal diameter compared to Ang-II alone [7, 9]: significantly restored

From US9963476B2, “Antioxidant compound having anti atherosclerotic effect and preparation thereof” (Council of Scientific and Industrial Research, priority 2015, dated 2018)
